Publication PMC4979060, “Structural basis of metallo-β-lactamase, serine-β-lactamase and penicillin-binding protein inhibition by cyclic boronates” (Nature Communications, 2016)

What was measured:
BcII = target: T1, BcII (Bacillus cereus, UniProt P04190); test: Fluorogenic β-lactamase inhibition assay (FC-5 substrate), BcII; assay type: biochemical; settings: for IC50: 10 min preincubation
T1 construct: made in house; host or cells: E. coli
Procedure: (§1) Kinetic and inhibition analyses, and ^19F NMR studies[10] against bacterial β-lactamases were performed as described. The FC-5 cephalosporin[9] was used as substrate for BcII, VIM-2, IMP-1, NDM-1, SPM-1, TEM-1 and OXA-10, meropenem[28] for CphA and nitrocefin[34] for PBP 3 and PBP 5.
(§2) In brief IC50 values were determined by preincubation of the appropriate amount of enzyme with the cyclic boronates in the assay buffers for 10 min at room temperature prior to the initiation of the assay by the addition of the appropriate substrate. The enzyme concentrations used are the following: 1 nM BcII, 100 nM VIM-2, 10 nM IMP-1, 10 nM NDM-1, 1 nM SPM-1, 1 nM TEM-1, 1 nM OXA-10, 2.5 nM CphA, 4 μM PBP 3 and 5 μM PBP 5; note that the final concentrations are stated. The assay buffers used are the following: 50 mM HEPES, pH 7.2 supplemented with 1 μg BSA, 1 μg ZnSO4 and 0.01% Triton for BcII, VIM-2, IMP-1, NDM-1 and SPM-1, 15 mM MES, pH 6.5 for CphA, 50 mM HEPES, pH 7.2 supplemented with 200 mM NaCl and 0.01% Triton 100 for TEM-1, 100 mM sodium phosphate, pH 7.2 supplemented with 50 mM NaHCO3 and 0.01% Triton 100 for OXA-10 and 50 mM HEPES, pH 7.2 supplemented with 200 mM NaCl and 0.01% Triton 100 for PBP 3 and PBP 5. The amount of substrates used is the following: 5 μM for BcII, VIM-2, IMP-1, NDM-1 and SPM-1, 10 μM for TEM-1 and OXA-10, 125 μM for CphA and 25 μM for PBP 3 and PBP 5; note that the final concentrations are stated.
(§3) The experiments were performed using a PHERAstar FS microplate reader (BMG Labtech) at room temperature (24–25 °C). All enzymes and inhibitors were prepared in the specific assay buffer. The kinetic values in this study are the means from at least three independent measurements; at least nine different concentrations of the inhibitor were used to determine the kinetic parameters (IC50). The IC50 values were determined using the software package Graph Prism 5.

VIM-2 = target: T2, VIM-2 (Escherichia coli, UniProt Q5U7L7); test: Fluorogenic β-lactamase inhibition assay (FC-5 substrate), VIM-2; assay type: biochemical; settings: for IC50: 10 min preincubation
T2 construct: made in house; host or cells: E. coli
Procedure: as §1, §2, §3

NDM-1 = target: T3, NDM-1 (Klebsiella pneumoniae, UniProt C7C422); test: Fluorogenic β-lactamase inhibition assay (FC-5 substrate), NDM-1; assay type: biochemical; settings: for IC50: 10 min preincubation
T3 construct: made in house; host or cells: E. coli
Procedure: as §1, §2, §3

SPM-1 = SPM-1 (Pseudomonas aeruginosa, UniProt Q8G9Q0); test: Fluorogenic β-lactamase inhibition assay (FC-5 substrate), SPM-1; assay type: biochemical; settings: for IC50: 10 min preincubation
Procedure: as §1, §2, §3

CphA = target: T4, CphA (Aeromonas hydrophila, UniProt P26918); test: B2 MBL inhibition assay (meropenem substrate), CphA; assay type: biochemical, Aeromonas hydrophilia; settings: for IC50: 10 min preincubation
T4 construct: made in house; host or cells: E. coli
Procedure: as §1, §2, §3

TEM-1 = target: T5, TEM-1 (Escherichia coli, UniProt P62593); test: Fluorogenic β-lactamase inhibition assay (FC-5 substrate), TEM-1; assay type: biochemical; settings: for IC50: 10 min preincubation
T5 construct: made in house; host or cells: E. coli
Procedure: as §1, §2, §3

OXA-10 = target: T6, OXA-10 (Pseudomonas aeruginosa, UniProt P14489); test: Fluorogenic β-lactamase inhibition assay (FC-5 substrate), OXA-10; assay type: biochemical; settings: for IC50: 10 min preincubation
T6 construct: made in house; host or cells: E. coli
Procedure: as §1, §2, §3

PBP 3 = target: T7, PBP 3 (Pseudomonas aeruginosa, UniProt G3XD46); test: PBP inhibition assay (nitrocefin substrate), PBP 3; assay type: biochemical; settings: NI = no inhibition at 100 μM, read-out: IC50 (μM)/pIC50 (converted)
T7 construct: made in house; host or cells: E. coli
Procedure: as §1, §2, §3

IMP-1 = target: T8, IMP-1 (Serratia marcescens, UniProt P52699); test: Fluorogenic β-lactamase inhibition assay (FC-5 substrate), IMP-1; assay type: biochemical
T8 construct: made in house; host or cells: E. coli
Procedure: as §1
In brief IC50 values were determined by preincubation of the appropriate amount of enzyme with the cyclic boronates in the assay buffers for 10 min at room temperature prior to the initiation of the assay by the addition of the appropriate substrate. The enzyme concentrations used are the following: 1 nM BcII, 100 nM VIM-2, 10 nM IMP-1, 10 nM NDM-1, 1 nM SPM-1, 1 nM TEM-1, 1 nM OXA-10, 2.5 nM CphA, 4 μM PBP 3 and 5 μM PBP 5; note that the final concentrations are stated. […]
The experiments were performed using a PHERAstar FS microplate reader (BMG Labtech) at room temperature (24–25 °C). […] The IC50 values were determined using the software package Graph Prism 5.

T1 sequence (P04190 31-257): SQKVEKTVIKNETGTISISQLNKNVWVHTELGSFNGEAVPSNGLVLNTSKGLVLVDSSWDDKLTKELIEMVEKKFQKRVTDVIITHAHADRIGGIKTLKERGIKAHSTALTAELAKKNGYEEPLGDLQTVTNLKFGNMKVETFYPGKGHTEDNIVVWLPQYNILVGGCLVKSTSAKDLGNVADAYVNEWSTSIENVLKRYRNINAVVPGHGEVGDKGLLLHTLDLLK
T5 sequence (P62593 24-286 limits assumed): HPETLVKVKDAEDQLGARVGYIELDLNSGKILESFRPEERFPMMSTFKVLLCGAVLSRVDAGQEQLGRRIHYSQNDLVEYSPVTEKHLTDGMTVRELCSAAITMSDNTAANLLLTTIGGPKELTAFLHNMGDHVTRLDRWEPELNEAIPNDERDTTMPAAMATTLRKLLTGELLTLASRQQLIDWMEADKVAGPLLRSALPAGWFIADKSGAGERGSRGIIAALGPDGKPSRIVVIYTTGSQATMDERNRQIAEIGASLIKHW
Chain of SPM-1 (Q8G9Q0 entry or part of it): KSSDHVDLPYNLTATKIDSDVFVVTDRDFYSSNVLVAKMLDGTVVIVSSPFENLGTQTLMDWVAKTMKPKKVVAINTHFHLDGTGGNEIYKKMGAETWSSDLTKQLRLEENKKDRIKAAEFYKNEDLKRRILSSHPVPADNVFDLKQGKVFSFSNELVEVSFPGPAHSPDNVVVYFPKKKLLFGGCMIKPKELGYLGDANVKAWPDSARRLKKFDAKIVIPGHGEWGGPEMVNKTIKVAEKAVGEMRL
T3 sequence (C7C422 29-270, looked up, species assumed): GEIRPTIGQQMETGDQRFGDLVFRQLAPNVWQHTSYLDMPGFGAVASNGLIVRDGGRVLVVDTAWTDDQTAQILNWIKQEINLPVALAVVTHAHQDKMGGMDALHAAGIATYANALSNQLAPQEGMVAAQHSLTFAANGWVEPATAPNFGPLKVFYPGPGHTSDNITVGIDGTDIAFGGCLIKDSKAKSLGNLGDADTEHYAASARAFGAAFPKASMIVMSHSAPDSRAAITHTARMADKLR
T6 sequence (P14489 20-266, species assumed): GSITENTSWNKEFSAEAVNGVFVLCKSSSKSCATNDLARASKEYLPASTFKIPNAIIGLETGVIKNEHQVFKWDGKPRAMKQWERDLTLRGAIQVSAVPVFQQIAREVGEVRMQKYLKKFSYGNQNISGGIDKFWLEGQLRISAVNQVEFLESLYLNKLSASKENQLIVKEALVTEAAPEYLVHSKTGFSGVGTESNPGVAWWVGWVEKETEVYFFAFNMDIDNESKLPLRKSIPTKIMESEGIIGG
T7 sequence (G3XD46 whole entry): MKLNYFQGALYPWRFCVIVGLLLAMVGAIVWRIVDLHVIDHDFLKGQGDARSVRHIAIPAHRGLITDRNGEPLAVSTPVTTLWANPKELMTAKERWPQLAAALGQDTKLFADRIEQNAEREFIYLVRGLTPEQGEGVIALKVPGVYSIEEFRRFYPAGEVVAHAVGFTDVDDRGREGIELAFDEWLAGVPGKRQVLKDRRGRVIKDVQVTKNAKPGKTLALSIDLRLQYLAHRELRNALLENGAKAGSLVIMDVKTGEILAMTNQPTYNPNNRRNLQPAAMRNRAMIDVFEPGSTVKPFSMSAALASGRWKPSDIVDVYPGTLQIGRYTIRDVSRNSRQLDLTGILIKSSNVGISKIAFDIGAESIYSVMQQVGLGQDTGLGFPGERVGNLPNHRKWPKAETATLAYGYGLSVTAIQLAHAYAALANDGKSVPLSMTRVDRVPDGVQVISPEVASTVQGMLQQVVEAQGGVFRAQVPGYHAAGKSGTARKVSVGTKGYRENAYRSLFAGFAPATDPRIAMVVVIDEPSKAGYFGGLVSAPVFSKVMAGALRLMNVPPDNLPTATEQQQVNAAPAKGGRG
T4 sequence (P26918 28-254): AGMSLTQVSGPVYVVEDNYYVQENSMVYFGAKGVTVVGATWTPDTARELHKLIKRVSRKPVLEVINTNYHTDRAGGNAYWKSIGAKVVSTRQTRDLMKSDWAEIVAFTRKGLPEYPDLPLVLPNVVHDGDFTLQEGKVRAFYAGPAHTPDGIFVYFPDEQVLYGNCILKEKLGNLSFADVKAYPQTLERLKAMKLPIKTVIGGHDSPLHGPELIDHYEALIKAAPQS
T8 sequence (P52699 19-246, looked up, species assumed): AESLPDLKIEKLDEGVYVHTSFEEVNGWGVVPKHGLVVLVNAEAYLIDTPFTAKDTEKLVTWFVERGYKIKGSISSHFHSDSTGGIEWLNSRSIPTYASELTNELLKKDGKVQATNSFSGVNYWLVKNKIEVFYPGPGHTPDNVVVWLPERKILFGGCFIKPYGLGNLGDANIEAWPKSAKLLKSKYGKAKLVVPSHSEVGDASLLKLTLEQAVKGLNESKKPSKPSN

SMILES: NCC1CCC(C(=O)N[C@H]2Cc3cccc(C(=O)O)c3O[B-]2(O)O)CC1 (stereo partly drawn) [compound 3]
- pIC50 (BcII): 6.0
- IC50 (BcII): 960 nM
- pIC50 (VIM-2): 7.9
- IC50 (VIM-2): 11 nM
- pIC50 (NDM-1): 6.1
- IC50 (NDM-1): 687 nM
- pIC50 (SPM-1): 4.8
- IC50 (SPM-1): 16000 nM
- pIC50 (CphA): 4.68
- IC50 (CphA): 20800 nM
- pIC50 (TEM-1): 8.5
- IC50 (TEM-1): 2 nM
- pIC50 (OXA-10): 6.0
- IC50 (OXA-10): 830 nM
- IC50 (PBP 3): > 100 µM

SMILES: O=C(N[C@H]1Cc2cccc(C(=O)O)c2O[B-]1(O)O)c1ccc(CN2CCNCC2)cc1 [compound 4]
- pIC50 (BcII): 6.2
- IC50 (BcII): 520 nM
- pIC50 (VIM-2): 7.8
- IC50 (VIM-2): 14 nM
- pIC50 (IMP-1): 4.7
- IC50 (NDM-1): 40 nM
- pIC50 (SPM-1): 4.8
- IC50 (SPM-1): 13900 nM
- pIC50 (CphA): > 4
- IC50 (CphA): > 100000 nM
- pIC50 (TEM-1): 9.4
- IC50 (TEM-1): 0.3 nM
- pIC50 (OXA-10): 5.6
- IC50 (OXA-10): 2260 nM
- IC50 (PBP 3): > 100 µM

SMILES: NCCNCc1ccc(C(=O)N[C@H]2Cc3cccc(C(=O)O)c3O[B-]2(O)O)cc1 [compound 5]
- pIC50 (BcII): 5.9
- IC50 (BcII): 1140 nM
- IC50 (VIM-2): 2 nM
- pIC50 (SPM-1): 4.4
- IC50 (SPM-1): 36300 nM
- pIC50 (CphA): > 4
- IC50 (CphA): > 100000 nM
- pIC50 (TEM-1): 8.1
- IC50 (TEM-1): 6 nM
- pIC50 (OXA-10): 4.9
- IC50 (OXA-10): 12700 nM
- IC50 (PBP 3): > 100 µM
